From PubChem BioAssay AID330 (DTP/NCI, 2004)
“And” between values parts separate entries of the source, which are not always exact repeats. Identical values can stand only once. Inconclusive results and toxic doses are left out. Rule for the calls: active = survival T/C of 150% or more; inactive = T/C below 125% in these data.

Test system: P388 leukemia ip, CD2F1 mice, survival T/C
Test: NCI In Vivo Anticancer Drug Screen. Data for tumor model P388 Leukemia (intraperitoneal) in CD2F1 (CDF1) mice
Details: endpoint: median survival time, higher = longer survival
Procedure, shortened: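 Mice carrying the transplanted tumor received test compound or vehicle. Survival was recorded in each group, and the value is the treated-group measurement divided by that of the vehicle-treated control group.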

[1] = dose: 50.0 mg/kg/injection, schedule: Q01DX005 (ip), vehicle: saline with Tween-80
[2] = dose: 100.0 mg/kg/injection, schedule: Q01DX005 (ip), vehicle: saline with Tween-80
[3] = dose: 12.5 mg/kg/injection, schedule: Q01DX005 (ip), vehicle: saline
[4] = dose: 25.0 mg/kg/injection, schedule: Q01DX005 (ip), vehicle: saline
[5] = dose: 100.0 mg/kg/injection, schedule: Q01DX001 (ip), vehicle: saline with Tween-80
[6] = dose: 200.0 mg/kg/injection, schedule: Q01DX001 (ip), vehicle: saline with Tween-80
[7] = dose: 200.0 mg/kg/injection, schedule: Q01DX005 (ip), vehicle: saline with Tween-80

Measured: T/C

CC1=NS(C)(=O)=c2ccc(C)cc2=N1 (stereo unspecified)
inactive: dose: 50.0 mg/kg/injection, schedule: Q01DX005 (ip), vehicle: acetone 100 % of control | dose: 100.0 mg/kg/injection, schedule: Q01DX005 (ip), vehicle: acetone 100 % of control | dose: 200.0 mg/kg/injection, schedule: Q01DX005 (ip), vehicle: acetone 100 % of control

c1nc(SC2CCCC2)c2[nH]cnc2n1
inactive: dose: 100.0 mg/kg/injection, schedule: Q04DX003 (ip), vehicle: saline with Tween-80 118 % of control | dose: 200.0 mg/kg/injection, schedule: Q04DX003 (ip), vehicle: saline with Tween-80 104 % of control | dose: 400.0 mg/kg/injection, schedule: Q04DX003 (ip), vehicle: saline with Tween-80 118 % of control

Cc1noc(NC(=O)Nc2ccccc2F)c1C#N
inactive: [1] 91 % of control | [2] 100 % of control

O=C(O)CCCC/C=C/CCCCCCC1C=CCC1 (stereo unspecified)
inactive: dose: 100.0 mg/kg/injection, schedule: Q04DX003 (ip), vehicle: saline 93 % of control | dose: 200.0 mg/kg/injection, schedule: Q04DX003 (ip), vehicle: saline 98 % of control | dose: 400.0 mg/kg/injection, schedule: Q04DX003 (ip), vehicle: saline 91 % of control

C(=C\c1ccccc1)/c1ccccc1
inactive: dose: 6.25 mg/kg/injection, schedule: Q01DX005 (ip), vehicle: saline 100 % of control | [3] 109 % of control | [4] 94 % of control

CC(CN(C)C)C(=O)c1ccccc1 (stereo unspecified)
inactive: dose: 6.25 mg/kg/injection, schedule: Q01DX009 (ip), vehicle: saline with Tween-80 113 % of control | dose: 12.5 mg/kg/injection, schedule: Q01DX009 (ip), vehicle: saline with Tween-80 112 % of control | dose: 25.0 mg/kg/injection, schedule: Q01DX009 (ip), vehicle: saline with Tween-80 120 % of control | dose: 50.0 mg/kg/injection, schedule: Q01DX009 (ip), vehicle: saline with Tween-80 114 % of control | dose: 50.0 mg/kg/injection, schedule: Q01DX009 (ip), vehicle: saline 99 % of control | dose: 100.0 mg/kg/injection, schedule: Q01DX009 (ip), vehicle: saline with Tween-80 117 % of control | dose: 100.0 mg/kg/injection, schedule: Q01DX009 (ip), vehicle: saline 99 % of control

CCN1c2ccccc2S(=O)(=O)n2c(Cc3ccccc3)nnc21
inactive: [5] 93 % of control | [6] 92 % of control

CO/N=C1/C=CC(Cl)=C/C1=C(\c1ccccc1Cl)C(C#N)c1ccccc1Cl (stereo unspecified)
inactive: [5] 94 % of control | [6] 102 % of control | dose: 400.0 mg/kg/injection, schedule: Q01DX001 (ip), vehicle: saline with Tween-80 92 % of control

CC(C)[CH2][Pb]([CH2]C(C)C)([CH2]C(C)C)[n]1ccnc1
inactive: dose: 3.12 mg/kg/injection, schedule: Q01DX009 (ip), vehicle: saline 101 % of control | dose: 6.25 mg/kg/injection, schedule: Q01DX009 (ip), vehicle: saline 108 % of control | dose: 12.5 mg/kg/injection, schedule: Q01DX009 (ip), vehicle: saline 111 % of control

CCCC(O)(CCC)C1=NCCN1
inactive: [3] 103 % of control | [4] 102 % of control | dose: 50.0 mg/kg/injection, schedule: Q01DX005 (ip), vehicle: saline 99 % of control and 102 % of control

CN1C=CC2C(C#N)CC2C1=O (stereo unspecified)
inactive: dose: 100.0 mg/kg/injection, schedule: Q04DX002 (ip), vehicle: saline with Tween-80 101 % of control | dose: 200.0 mg/kg/injection, schedule: Q04DX002 (ip), vehicle: saline with Tween-80 110 % of control | dose: 400.0 mg/kg/injection, schedule: Q04DX002 (ip), vehicle: saline with Tween-80 110 % of control

Cc1ccc(/C=N/n2c(-c3ccccc3Cl)nc3ccccc3c2=O)cc1
inactive: [1] 96 % of control | [2] 93 % of control | [7] 91 % of control

C=CCNC(=S)n1cnc(N)n1
inactive: dose: 30.0 mg/kg/injection, schedule: Q01DX005 (ip), vehicle: saline with Tween-80 107 % of control | dose: 60.0 mg/kg/injection, schedule: Q01DX005 (ip), vehicle: saline with Tween-80 105 % of control and 108 % of control | dose: 120.0 mg/kg/injection, schedule: Q01DX005 (ip), vehicle: saline with Tween-80 115 % of control and 96 % of control

C[n+]1cccc(/C=N/O)c1
inactive: dose: 100.0 mg/kg/injection, schedule: Q04DX002 (ip), vehicle: saline 100 % of control | dose: 200.0 mg/kg/injection, schedule: Q04DX002 (ip), vehicle: saline 100 % of control

Cc1cc(OP2(=O)Nc3cccc4cccc(c34)N2)ccc1Cl
inactive: [1] 89 % of control | [2] 89 % of control

CSc1nc2ccc(N=Cc3ccc([N+](=O)[O-])cc3)cc2s1
inactive: dose: 50.0 mg/kg/injection, schedule: Q01DX009 (ip), vehicle: Klucel (hydroxypropylcellulose) (HPC) 98 % of control | dose: 100.0 mg/kg/injection, schedule: Q01DX009 (ip), vehicle: Klucel (hydroxypropylcellulose) (HPC) 86 % of control | dose: 200.0 mg/kg/injection, schedule: Q01DX009 (ip), vehicle: Klucel (hydroxypropylcellulose) (HPC) 87 % of control and 92 % of control

NC(=Nc1ccc(S(=O)(=O)Nc2cnc3ccccc3n2)cc1)/N=C(/N)Nc1ccc(Br)cc1
inactive: [1] 99 % of control | [2] 100 % of control | [7] 99 % of control
